The text below walks through data of PMC9495681, “Examining Topoisomers of a Snake-Venom-Derived Peptide for Improved Antimicrobial and Antitumoral Properties” (Biomedicines, 2022).

The structures appear in SMILES notation. Converted amounts (≈) assume the structure as drawn. Square brackets hold non-standard residues; d marks the D form. Peptide text beside a SMILES is read from it. Bounds are passed on as bounds.

The subject of series [1] is A. baumannii (ATCC 15308). The series is described as follows: Minimal inhibitory concentration (MIC), broth microdilution. The series is classed as cell-based. The conditions noted are these: Mueller Hinton Broth, 5 × 10^5 CFU/mL, 0.04% BSA and 0.002% acetic acid, 20–22 h at 37 °C, duplicate. As to the method:
(§1) Assays were performed on three Gram-negative bacteria: E. coli (BW25113, Coli Genetic Stock Center), A. baumannii (ATCC 15308, CECT, Valencia, Spain), and Pseudomonas sp. (ATCC15915, CECT). The minimal inhibitory concentration (MIC) of each peptide was determined as described by Wiegand et al.. Peptide stocks in water were added to polypropylene 96-well plates (Greiner, Frickenhausen, Germany) and serially diluted from 100 to 0.2 μM. Fresh bacteria were incubated at 37 °C in Mueller Hinton Broth (MHB, Condalab, Torrejón de Ardoz, Spain) up to exponential growth and diluted to a final inoculum of 5 × 10^5 CFU/mL. BSA and acetic acid at 0.04% (w/v) and 0.002% (v/v) final concentration, respectively, were added to avoid peptide self-aggregation. Plates were incubated for 20–22 h at 37 °C. Each peptide was tested in duplicate. MIC values were the lowest peptide concentration where bacterial growth was not detected.
A general note: Broth dilution looks for growth in wells or tubes with falling amounts of substance.

The test system of series [2] is Pseudomonas sp. (ATCC15915). The description is as above. The series is classed as cell-based. The conditions noted are these: Mueller Hinton Broth, 5 × 10^5 CFU/mL, 0.04% BSA and 0.002% acetic acid, 20–22 h at 37 °C, duplicate. The method, then: as §1
The subject of the next series is HeLa S3. The series can be described thus: Peptide cytotoxicity (Cell Titer Blue viability). Type of series: cell-based, Human. The conditions noted are these: peptide treatment 24 h, medium with 2% FBS, Cell Titer Blue fluorescence, triplicate. The source says: (§2) Human HeLa S3 (cervix epithelial carcinoma), leukemia Jurkat E6.1 (T-cell lineage), U937 (histiocytic lymphoma), THP-1 (acute monocytic leukemia), and 1BR3G human fibroblasts were obtained from the Cell Lines Repository of the Institut Municipal d’Investigació Medica (Barcelona, Spain). BxPC3 (pancreas adenocarcinoma), A549 (lung carcinoma), SH-Sy5Y (neuroblastoma), Panc1 (epithelioid carcinoma), 786-O (renal cell adenocarcinoma), and HT29 (colorectal adenocarcinoma) were obtained from the Integrative Biomedical Materials and Nanomedicine lab at UPF (Barcelona, Spain). HeLa S3, Jurkat E6.1, U937, THP-1, Panc1, and 786-O were cultured in Roswell Park Memorial Institute medium (RPMI) supplemented with 10% fetal bovine serum (FBS) and 1% penicillin/streptomycin solution and maintained at 37 °C in a humidified atmosphere with 5% of CO2. 1BR3G, BxPC3, A549, and HT29 were cultured in Dulbecco’s Modified Eagle’s Medium (DMEM) supplemented with 10% FBS and 1% penicillin/streptomycin solution and maintained at 37 °C in a humidified atmosphere with 5% of CO2. SH-Sy5Y was cultured in DMEM supplemented with 15% FBS and 1% penicillin/streptomycin and maintained at 37 °C in a humidified atmosphere with 5% of CO2. Cultures were maintained at 10^5–10^6 cell/mL densities. For 1BR3G human fibroblasts, BxPC3, A549, SH-Sy5Y, Panc1, 786-O, and HT29 were split every time they reached 80–90% of confluence after harvesting with PBS and trypsin.
(§3) About 60,000 cells were added to different microfuge tubes containing 2-fold serial dilution of the peptide, with a final concentration in the range between 0.1–100 μM in RPMI containing 2% of FBS. After 30 min incubation at 37 °C and 5% of CO2, […] of medium containing approximately 10,000 treated cells were transferred to a 96-well plate. Then, 15 μL of Cell Titer Blue dye (Promega, Madison, WI, USA) was added, and plates were reincubated for 24 h. Fluorescence was read at 4 and 24 h after dye addition in a Synergy HTX (BioTek, Winooski, VT, USA) reader, with λexc = 560 nm and λem = 620 nm. In the case of adherent cultures, 5000 cells/well were seeded in 96-well plates. After 24 h incubation at 37 °C and 5% of CO2, the medium was removed, and a new medium with 2% of FBS containing the various 2-fold dilution of the peptides was added. After a further 30 min, 15 μL of Cell Titer Blue dye was added to each well, and the measurement was done as above. Relative viability was calculated relative to a cell with only 2% FBS in the corresponding medium as a control (100% viability). All assays were conducted in triplicate.
In general terms: Alamar Blue is a resazurin reagent that responds to reducing activity.

In a further series the test system is Jurkat E6.1. The series can be described thus: Peptide cytotoxicity (Cell Titer Blue viability). The conditions noted are these: peptide treatment 24 h, medium with 2% FBS, Cell Titer Blue fluorescence, triplicate. Type of series: cell-based, Human.
Text: as §2, §3

Another series has as its system SH-Sy5Y (neuroblastoma). The series can be described thus: Peptide cytotoxicity (Cell Titer Blue viability). Type of series: cell-based, Human. The conditions noted are these: peptide treatment 24 h, medium with 2% FBS, Cell Titer Blue fluorescence, triplicate.
Text: as §2, §3

For another series, the system named is THP-1. The series can be described thus: Peptide cytotoxicity (Cell Titer Blue viability). The conditions noted are these: peptide treatment 24 h, medium with 2% FBS, Cell Titer Blue fluorescence, triplicate. Type of series: cell-based, Human.
Text: as §2, §3

For another series, the system named is U937. The series can be described thus: Peptide cytotoxicity (Cell Titer Blue viability). The conditions noted are these: peptide treatment 24 h, medium with 2% FBS, Cell Titer Blue fluorescence, triplicate. Type of series: cell-based, Human.
Text: as §2, §3

Series [3] has as its system BxPC3, A549, Panc1, 786-O, and HT29. The series can be described thus: Peptide cytotoxicity (Cell Titer Blue viability), non-leukemia cell lines of Figure 2. The conditions noted are these: peptide treatment 24 h, triplicate, read-out: IC50, other cancer cell lines (non-leukemia, other than SH-Sy5Y). The series is classed as cell-based, Human. The source says:
Human HeLa S3 (cervix epithelial carcinoma), leukemia Jurkat E6.1 (T-cell lineage), U937 (histiocytic lymphoma), THP-1 (acute monocytic leukemia), and 1BR3G human fibroblasts were obtained from the Cell Lines Repository of the Institut Municipal d’Investigació Medica (Barcelona, Spain). BxPC3 (pancreas adenocarcinoma), A549 (lung carcinoma), SH-Sy5Y (neuroblastoma), Panc1 (epithelioid carcinoma), 786-O (renal cell adenocarcinoma), and HT29 (colorectal adenocarcinoma) were obtained from the Integrative Biomedical Materials and Nanomedicine lab at UPF (Barcelona, Spain). HeLa S3, Jurkat E6.1, U937, THP-1, Panc1, and 786-O were cultured in Roswell Park Memorial Institute medium (RPMI) supplemented with 10% fetal bovine serum (FBS) and 1% penicillin/streptomycin solution and maintained at 37 °C in a humidified atmosphere with 5% of CO2. […]
About 60,000 cells were added to different microfuge tubes containing 2-fold serial dilution of the peptide, with a final concentration in the range between 0.1–100 μM in RPMI containing 2% of FBS. […] Fluorescence was read at 4 and 24 h after dye addition in a Synergy HTX (BioTek, Winooski, VT, USA) reader, with λexc = 560 nm and λem = 620 nm. […] Relative viability was calculated relative to a cell with only 2% FBS in the corresponding medium as a control (100% viability). […]

The subject of another series is E. coli (BW25113). The series is described as follows: Minimal inhibitory concentration (MIC), broth microdilution. The conditions noted are these: Mueller Hinton Broth, 5 × 10^5 CFU/mL, 0.04% BSA and 0.002% acetic acid, 20–22 h at 37 °C, duplicate. The series is classed as cell-based. As to the method:
as §1

For the next series, the system named is 1BR3G human fibroblasts. The series is described as follows: Peptide cytotoxicity (Cell Titer Blue viability). The series is classed as cell-based. The conditions noted are these: 24 h treatment, medium with 2% FBS, Cell Titer Blue fluorescence, triplicate.
Text: as §2, §3

A short description of another series: Serum stability. The series is classed as in vitro ADME. The conditions noted are these: 0.5 mL each of human serum (Sigma-Aldrich) and peptide (1 mM in water), 37 °C with stirring, 24 h (1440 min), trichloroacetic acid treatment, HPLC / LC-MS; read-out: Peptide remaining in human serum after 24 h. As to the method: Briefly, 0.5 mL each of human serum (Sigma-Aldrich, St. Louis, MO, USA) and peptide (1 mM in water) were mixed and incubated for 24 h at 37 °C with stirring. Aliquots (0.1 mL) were taken at 0, 1, 5, 10, 30, 120, 360 and 1440 min and treated with 20 μL of trichloroacetic acid (15% (v/v) in water). The suspension was centrifuged for 30 min at 4 °C and 13,000 rpm, and the supernatant was analyzed by HPLC as described above.

Take `CC[C@H](C)[C@H](NC(=O)[C@H](CCCCN)NC(=O)[C@H](CCCCN)NC(=O)[C@H](CC(C)C)NC(=O)[C@H](CCCNC(=N)N)NC(=O)[C@H](CCCCN)NC(=O)[C@H](CCCCN)NC(=O)[C@@H](NC(=O)[C@H](CO)NC(=O)[C@H](CCCCN)NC(=O)[C@H](CCCCN)NC(=O)[C@@H](NC(=O)[C@H](CCCCN)NC(=O)[C@H](CCCCN)NC(=O)[C@H](Cc1ccccc1)NC(=O)[C@H](Cc1ccccc1)NC(=O)[C@H](CCCCN)NC(=O)[C@H](CCCCN)NC(=O)[C@H](Cc1ccccc1)NC(=O)[C@H](CCCNC(=N)N)NC(=O)[C@@H](N)CCCCN)C(C)C)C(C)C)C(=O)N[C@@H](Cc1ccccc1)C(=O)N[C@@H](CCCCN)C(=O)N[C@@H](CCCCN)C(=O)N1CCC[C@H]1C(=O)N[C@@H](CCSC)C(=O)N[C@H](C(=O)N[C@H](C(=O)NCC(=O)N[C@H](C(=O)N[C@H](C(=O)N[C@H](C(=O)N1CCC[C@H]1C(=O)N[C@@H](Cc1ccccc1)C(N)=O)[C@@H](C)CC)[C@@H](C)O)C(C)C)[C@@H](C)CC)C(C)C` [Ctn] (H-KRFKKFFKKVKKSVKKRLKKIFKKPMVIGVTIPF-NH2): the “MIC A. baumannii” value in series [1] is 0.78 µM (≈ 3.24 µg/mL). For the same compound, in series [2], the “MIC Pseudomonas sp.” value is less than 0.05 µM. The IC50 was roughly 3.47 µM with HeLa S3; less than 1 µM in the series with Jurkat E6.1; roughly 2.61 µM with SH-Sy5Y (neuroblastoma); less than 1 µM in the series on THP-1; less than 1 µM in the series on U937; no less than 10 µM in series [3].
On to `CC[C@@H](C)[C@@H](NC(=O)[C@@H](CCCCN)NC(=O)[C@@H](CCCCN)NC(=O)[C@@H](CC(C)C)NC(=O)[C@@H](CCCNC(=N)N)NC(=O)[C@@H](CCCCN)NC(=O)[C@@H](CCCCN)NC(=O)[C@H](NC(=O)[C@@H](CO)NC(=O)[C@@H](CCCCN)NC(=O)[C@@H](CCCCN)NC(=O)[C@H](NC(=O)[C@@H](CCCCN)NC(=O)[C@@H](CCCCN)NC(=O)[C@@H](Cc1ccccc1)NC(=O)[C@@H](Cc1ccccc1)NC(=O)[C@@H](CCCCN)NC(=O)[C@@H](CCCCN)NC(=O)[C@@H](Cc1ccccc1)NC(=O)[C@@H](CCCNC(=N)N)NC(=O)[C@H](N)CCCCN)C(C)C)C(C)C)C(=O)N[C@H](Cc1ccccc1)C(=O)N[C@H](CCCCN)C(=O)N[C@H](CCCCN)C(=O)N1CCC[C@@H]1C(=O)N[C@H](CCSC)C(=O)N[C@@H](C(=O)N[C@@H](C(=O)NCC(=O)N[C@@H](C(=O)N[C@@H](C(=O)N[C@@H](C(=O)N1CCC[C@@H]1C(=O)N[C@H](Cc1ccccc1)C(N)=O)[C@H](C)CC)[C@H](C)O)C(C)C)[C@H](C)CC)C(C)C` [Ctn enantio] (H-[dK][dR][dF][dK][dK][dF][dF][dK][dK][dV][dK][dK][dS][dV][dK][dK][dR][dL][dK][dK][dI][dF][dK][dK][dP][dM][dV][dI]G[dV][dT][dI][dP][dF]-NH2), for which, in series [1], the “MIC A. baumannii” value is 1.56 µM (≈ 6.48 µg/mL). Besides, in the series with E. coli (BW25113), the “MIC E. coli” value was 0.39 µM (≈ 1.62 µg/mL). The “MIC Pseudomonas sp.” value in [2] was 0.39 µM (≈ 1.62 µg/mL). In the series with 1BR3G human fibroblasts, the “IC50 (cell viability) human fibroblast 1BR3G” value was found to be 2.7 µM. In “Serum stability”, the amount remaining at 24 h, 0.5 mM was determined as 30%.

A word on the IC50: it is the concentration needed to halve the response being measured. A word on the fraction remaining: it is the share of the starting amount still present when the sample was taken.
